Laboratory results: US20260355180A1, “COMPOSITIONS AND METHODS FOR SPLICEOSOME-TARGETED THERAPIES” (Institute for Cancer Research d/b/a The Research Institute …, priority 2022, published 2026)
“Also recorded” adds a separate entry of the source.

Experiments:
[1] = system: MEF ΔZBP1 cells; assay: Survival of PlaB treated MEF ΔZBP1; type: cell-based, mouse
Description: FIG. 16: Analysis of the effect of spliceosome inhibition on necroptosis in WT MEF cells. EV refers to cells treated with an empty vector.
(§1) Since induction of Z-nAs can result in ZBP1-dependent necroptosis, we analyzed induction of necroptosis in necroptotic competent MEFs using spliceosome inhibition. […] We also determined that MEFs ΔZBP1, WT, and Flag-ZBP1 cells treated with PlaB began dying within 24hours after treatment. With MEF Flag-ZBP1 cells showing only 20% survival after 24 hours (FIG. 16).

[2] = system: ZBP1-KO RPPM631 cells; assay: Viability of ZBP1-KO RPPM631 cells; type: cell-based, mouse; settings: PlaB
Description: (§2) Next, we prepared ZBP1-KO RPPM631 cells to determine whether the necroptosis was ZBP-1 dependent.

[3] = system: H446 SCLC cells; assay: IFN response by rRT-qPCR, H446; type: cell-based, human; settings: dose-dependent
Description: (§3) FIG. 3A-3D: SF3B1 inhibition induces a potent IFN response and increases expression of IFN-regulated proteins. […] Mean±SEM, two-tailed unpaired Student's t test *p<0.05, **p<0.01, ***p<0.001, ****p<0.0001.
(§4) We also observed that SF3B1 inhibition triggers robust anti-tumor response and upregulates IFN-β, IFN-γ, and IFN-responsive genes by real-time reverse-transcription quantitative polymerase chain reaction (rRT-qPCR) in H446 and H82 cells (FIGS. 3A and 3B). […] These observations indicate that spliceosome inhibition is useful as a targeted therapy for SCLCs.

[4] = system: wild type RPPM631 cells; assay: Viability of wild type RPPM631 cells; type: cell-based, mouse; settings: PlaB
Description: as §2

[5] = system: H82 KO cells; assay: CytoToxicity of PlaB in TNFR1-, TRADD-, FADD-, CASP8-KO H82 cells (trypan blue); type: cell-based; settings: 2.5 nM PlaB, 18 hrs
Description: […]: CytoToxicity analysis of PlaB in TNFR1-KO and TRADD-KO H82 cells […] and H446 cells (FIG. 16B). CytoToxicity analysis of PlaB in FADD-KO and CASP8-KO H82 cells (FIG. 16C) and H446 cells (FIG. 16D). EV refers to cells treated with an empty vector.
Since RIPK1 mediated apoptosis can be triggered by TNF110, TNFR1 and TRADD-KO SCLC cell lines are generated herein for subsequent studies. Here, we utilize CRISPR-Cas9 KO to effectively knockout TNFR1 and TRADD in SCLC cells. To confirm depletion of TNFR1 and TRADD proteins, cell lysates are collected and western blot analysis is performed. The following experiments are performed using the TNFR1 and TRADD-KO SCLC cells generated above.
H82 and H446 WT and TNFR1 and TRADD-KO cells generated above are treated with DMSO or 2.5 nM PlaB for 18 hrs. Then, the cells are counted using 0.4% trypan blue solution assessing total viable cells and the percent of cell survived with the H82 and H446 WT cells is compared. (FIG. 15A-15B) This allows us to confirm whether TNF is partially or fully responsible for PlaB-mediated cell death in SCLC cell lines.
Additionally, we analyzed the role played by FADD and CAPS8 in rescuing H82 and H446 cells from PlaB induced toxicity. Using the methods described above for the generation of TNFR1 and TRADD-KO cells, H82 and H446 FADD-KO cells and H82 and H446 CASP8-KO cells were generated. These cells were then treated with DMSO or 2.5 nM PlaB for 18 hrs and compared to WT H82 and H446 cells. […] (FIG. 15C and FIG. 15D)

[6] = system: MEF ΔZBP1 cells; assay: A-RNA and Z-NA accumulation in MEF ΔZBP1; type: cell-based, mouse
Description: (§5) FIG. 5A-5E: SF3B1 perturbation upregulates A-RNA and Z-nucleic acids in MEFs. (FIG. 5A) 5 nM of PlaB induces A-RNA and Z-Nucleic acids in ΔZBP1 MEF cells. (FIG. 5B) Quantification of A-RNA and Z-Nucleic acids. […] Plots of signal intensity are mean±SEM, two-tailed unpaired Student's t test *p<0.05, ***p<0.001, ****p<0.0001. 18 hours of PlaB treatment for IF, WB and rescue experiments. IF: 5 nM PlaB, WB and rescue experiments: 2.5 nM PlaB.
as §1

[7] = system: MEF Flag-ZBP1 cells; assay: pMLKL western blot / necroptosis, MEF Flag-ZBP1; type: cell-based, mouse; settings: 2.5 nM PlaB, 18 hours, MEF Flag-ZBP1 (full-length ZBP1)
Description: as §5, §1

[8] = system: MEF ΔZα cells; assay: A-RNA and Z-NA accumulation in MEF ΔZα; type: cell-based, mouse; settings: SF3B1 inhibition
[9] = system: H446 SCLC cells; assay: Antigen (HLA-ABC) and PD-L1 expression, H446; type: cell-based, human; settings: 48 hours of 0.5 nM PlaB
Description: as §3, §4

[10] = system: H82 SCLC cells; assay: RIPK1 depletion rescue of PlaB cytotoxicity, H82; type: cell-based; settings: 18 hours of PlaB, RIPK1 depleted H82
Description: (§6) FIG. 2A) SCLC cell lines (H446 and H82) and immortalized fibroblasts (FC1010 and HS68) cell survival curves after 72 hours of PlaB treatment. FIG. 2B) RIPK1 depletion rescues H82 and H446 cell survival after 18 hours of PlaB treatment. FIG. 2C) Western blot showing RIPK1 protein depletion. Mean±SEM, Welch's t test *p<0.05, **p<0.01.
(§7) Cancer deregulates splicing^31,32, and we hypothesized that hyper-proliferative SCLCs are dependent on splicing machineries for increased tumorigenicity^90.

[11] = system: H446 SCLC cells; assay: Cell survival after PlaB treatment, H446; type: cell-based, human
Description: as §6, §7

[12] = system: H446 cells; assay: Immunofluorescence of A-RNA (J2) and Z-NA (Z22), H446; type: cell-based, human
Description: FIG. 4A-4C: SF3B1 perturbation increases dsRNA and Z-nucleic acid levels in treated cells. […] (FIG. 4B) Quantification of A-RNA and Z-Nucleic acids. (FIG. 4C) Western blot showing induction of cleaved-PARP, pH2AX, and ZBP1, and the reduction of RIPK1 protein levels. Plots of signal intensity are mean±SEM, two-tailed unpaired Student's t test **p<0.01, ****p<0.0001.
Our observations led us to explore what caused the elevated IFN response. We used an immunofluorescence (IF) technique to determine if A-RNA was increased after PlaB treatment.

CCC(O)C(C)C1OC1CC(C)C=CC=C(C)C1OC(=O)CC(O)CCC(C)(O)C(OC(C)=O)C=CC1C (stereo not shown) [PlaB, Pladienolide B]
time after treatment at which cells began dying [1]: ≤ 24 h | viability [2]: only a minor decrease in viability | IFN response [3]: induces potent IFN response | viability [4]: significant decrease in viability | rescue from PlaB toxicity by CASP8-KO ([5]; H82 CASP8-KO): effectively rescued | rescue from PlaB toxicity by FADD-KO ([5]; H82 FADD-KO): effectively rescued | rescue from PlaB toxicity by TNFR1-KO ([5]; H82 TNFR1-KO): effectively rescued | rescue from PlaB toxicity by TRADD-KO ([5]; H82 TRADD-KO): effectively rescued | A-RNA induction ([6]; 5 nM PlaB, 18 hours): induces | Z-Nucleic acids induction ([6]; 5 nM PlaB, 18 hours): induces | A-RNA and Z-NA accumulation ([6]; SF3B1 inhibition): accumulation | pMLKL (necroptosis) [7]: triggered pMLKL; also recorded: induction of pMLKL | A-RNA and Z-NA accumulation [8]: accumulation | PD-L1 expression [9]: effectively upregulates | antigen expression [9]: effectively upregulates | cell survival upon RIPK1 depletion [10]: rescues | cell survival ([11]; 72 hours of PlaB, H446): drastically reduces cell survival; also recorded: dramatically reduces SCLC cell survival | sensitivity to SF3B1 inhibition ([11]; nanomolar concentration of PlaB): particularly sensitive | A-RNA level ([12]; 6 hours, mouse J2 antibody, H446): robust induction | Z-NA level ([12]; 6 hours, rabbit Z22 antibody, H446): significant increase | accumulation of A-RNA ([12]; low dose, J2 antibody): induces accumulation | accumulation of Z-Nucleic acids ([12]; low dose, Z22 antibody): induces accumulation
